Patent US20230058961A1, “SUBSTITUTED HETEROCYCLICS WITH THERAPEUTIC ACTIVITY IN HIV” (New York Blood Center, Inc., priority 2019, published 2023)

Key:
pseudovirus HIV-1 HXB2 = assay: microbe, parasite or virus in culture; format: cell-based
in vitro = conditions: human
[1] = Human immunodeficiency virus 1, HXB2, TZM-bl, anti-HIV-1 activity, single-cycle assay, TZM-bl cells, pseudovirus HIV-1 HXB2, read-out: IC50
[2] = anti-HIV-1 activity, single-cycle assay, TZM-bl cells, pseudovirus HIV-1 HXB2, read-out: IC50
[3] = CC50, cytotoxicity, TZM-bl cells, MTS, 3 days

Structure (SMILES) | IC50 (pseudovirus HIV-1 HXB2; [1]) [µM] | CC50 at 3 days (in vitro; CC50) [µM] | IC50 (pseudovirus HIV-1 HXB2; TZM-bl) [µM] | IC50 (pseudovirus HIV-1 HXB2; [2]) [µM] | CC50 at 3 days (in vitro; [3]) [µM]
Cc1cc(-c2ccc(C(F)(F)F)cn2)[nH]c1C(=O)NC(C)(CN)c1nc(CO)cs1 (racemic) [Compound 31, N-(1-Amino-2-(4-(hydroxymethyl)thiazol-2-yl)propan-2-yl)-3-methyl-5-(5-(trifluoromethyl)-pyridin-2-yl)-1H-pyrrole-2-carboxamide] | 2.6 ± 0.4 | > 68.3 |  |  | 
CC(CN)(NC(=O)c1ccc(-c2ccc(C(F)(F)F)cn2)[nH]1)c1nc(CO)cs1 (racemic) [Compound 32, N-(1-Amino-2-(4-(hydroxymethyl)thiazol-2-yl)propan-2-yl)-5-(5-(trifluoromethyl)pyridin-2-yl)-1H-pyrrole-2-carboxamide] | 5.1 ± 0.4 | > 70.5 |  |  | 
NCC(NC(=O)c1ccc(-c2ccc(C(F)(F)F)c(F)c2)[nH]1)c1ncc(CO)s1 (stereo not drawn) [Comparator A, reference compound] |  | 21.9 | 0.089 |  | 
NCC(NC(=O)c1ccc(-c2ccc(C(F)(F)F)cc2)[nH]1)c1ncc(CO)s1 (stereo not drawn) [Comparator B, reference compound] |  | 34 |  |  | 
NCC(NC(=O)c1ccc(-c2ccc(Cl)cn2)[nH]1)c1ncc(CO)s1 (stereo not drawn) [Compound 2, N-(2-Amino-1-(5-(hydroxymethyl)thiazol-2-yl)ethyl)-5-(5-chloropyridin-2-yl)-1H-pyrrole-2-carboxamide] |  | 142 ± 1.7 |  | 2.7 ± 0.7 | 
Cc1cc(-c2ccc(Cl)cn2)[nH]c1C(=O)NC(CN)c1ncc(CO)s1 (stereo not drawn) [Compound 3, N-(2-Amino-1-(5-(hydroxymethyl)thiazol-2-yl)ethyl)-5-(5-chloropyridin-2-yl)-3-methyl-1H-pyrrole-2-carboxamide] | 1.2 ± 0.1 | 98.3 ± 4 |  |  | 
NCC(NC(=O)c1ccc(-c2ccc(C(F)(F)F)cn2)[nH]1)c1ncc(CO)s1 (stereo not drawn) [Compound 5, N-(2-Amino-1-(5-(hydroxymethyl)thiazol-2-yl)ethyl)-5-(5-(trifluoromethyl)pyridin-2-yl)-1H-pyrrole-2-carboxamide] | < 1 | > 122 |  | 0.96 | 
Cc1cc(-c2ccc(C(F)(F)F)cn2)[nH]c1C(=O)NC(CN)c1ncc(CO)s1 (stereo not drawn) [Compound 7, N-(2-amino-1-(5-(hydroxymethyl)thiazol-2-yl)ethyl)-3-methyl-5-(5-(trifluoromethyl)pyridin-2-yl)-1H-pyrrole-2-carboxamide] | < 1 | 92.8 ± 2.4 |  |  | 
Cc1cc(-c2ccc(C(F)(F)F)cn2)[nH]c1C(=O)NC(c1ncc(CO)s1)C(C)(C)N (stereo not drawn) [Compound 11, N-(2-Amino-1-(5-(hydroxymethyl)thiazol-2-yl)-2-methylpropyl)-3-methyl-5-(5-(trifluoro-methyl)pyridin-2-yl)-1H-pyrrole-2-carboxamide] |  | 35.3 ± 2 |  | 0.6 ± 0.2 | < 50
NCC(NC(=O)c1ccc(-c2ccc(C(F)(F)F)cn2)[nH]1)c1ncc(C(O)CO)s1 (stereo not drawn) [Compound 13, N-(2-Amino-1-(5-(1,2-dihydroxyethyl)thiazol-2-yl)ethyl)-5-(5-(trifluoromethyl)pyridin-2-yl)-1H-pyrrole-2-carboxamide] |  | > 113 |  | 2.1 ± 0.3 | > 100
NCC(NC(=O)c1ccc(-c2ccc(Cl)cn2)[nH]1)c1nc(CO)cs1 (stereo not drawn) [Compound 15, N-(2-Amino-1-(4-(hydroxymethyl)thiazol-2-yl)ethyl)-5-(5-chloropyridin-2-yl)-1H-pyrrole-2-carboxamide] |  | > 132 |  | 5 ± 0.5 | > 100
NCC(NC(=O)c1ccc(-c2ccc(F)cn2)[nH]1)c1nc(CO)cs1 (stereo not drawn) [Compound 17, N-(2-Amino-1-(4-(hydroxymethyl)thiazol-2-yl)ethyl)-5-(5-fluoropyridin-2-yl)-1H-pyrrole-2-carboxamide] | > 10 | > 138 |  | > 11 | > 100
NCC(NC(=O)c1ccc(-c2ccc(Cl)cn2)[nH]1)c1csc(CO)n1 (stereo not drawn) [Compound 67, N-(2-Amino-1-(2-(hydroxymethyl)thiazol-4-yl)ethyl)-5-(5-chloropyridin-2-yl)-1H-pyrrole-2-carboxamide] |  | > 106 |  |  | 
